Laboratory results taken from article PMC8624485, “Modeling, Synthesis, and Biological Evaluation of Potential Retinoid-X-Receptor (RXR) Selective Agonists: Analogs of 4-[1-(3,5,5,8,8-Pentamethyl-5,6,7,8-tetrahyro-2-naphthyl)ethynyl]benzoic Acid (Bexarotene) and 6-(Ethyl(4-isobutoxy-3-isopropylphenyl)amino)nicotinic Acid (NEt-4IB)” (International Journal of Molecular Sciences, 2021).
Like-named read-outs stand apart in the source and are kept apart here.

What was measured:
Type in all cases: cell-based
RXRα = target: T1, RXRα (Homo sapiens, UniProt P19793); assay: UAS/Gal4 GFP reporter assay of RXRα activation in UAS-GFP x KMT2A-MLLT3 cells
T1 construct: expressed in transfected cells; host or cells: UAS-GFP x KMT2A-MLLT3 cells (retroviral transduction)
T1 sequence (P19793 227-458 limits assumed): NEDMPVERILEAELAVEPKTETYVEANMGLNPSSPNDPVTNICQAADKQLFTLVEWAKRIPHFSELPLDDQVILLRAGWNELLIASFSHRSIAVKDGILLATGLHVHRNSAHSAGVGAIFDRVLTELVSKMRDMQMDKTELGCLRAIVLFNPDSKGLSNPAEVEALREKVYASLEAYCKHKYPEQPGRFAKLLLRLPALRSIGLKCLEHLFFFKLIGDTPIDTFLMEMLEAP
Procedure: Cells were treated, and after 48 h, GFP measured by a ZE5 Flow Cytometer (Biorad).

[1] = target: T2, RXR-LXR heterodimer (LXR/LXRE) (Homo sapiens, UniProt P19793); assay: LXRE-luciferase transactivation assay in HEK293 cells; settings: for LXRE Activity (% of Bex): 100 nM compound alone, HEK293, bexarotene (1) set to 100%; for LHS Score (vs. Bex): LXRE Heterodimer Specificity: LXRE:RXRE activity ratio, compound 1 set to 1.0
T2 construct: expressed in transfected cells; host or cells: HEK293 cells
T2 sequence (P19793 1-462): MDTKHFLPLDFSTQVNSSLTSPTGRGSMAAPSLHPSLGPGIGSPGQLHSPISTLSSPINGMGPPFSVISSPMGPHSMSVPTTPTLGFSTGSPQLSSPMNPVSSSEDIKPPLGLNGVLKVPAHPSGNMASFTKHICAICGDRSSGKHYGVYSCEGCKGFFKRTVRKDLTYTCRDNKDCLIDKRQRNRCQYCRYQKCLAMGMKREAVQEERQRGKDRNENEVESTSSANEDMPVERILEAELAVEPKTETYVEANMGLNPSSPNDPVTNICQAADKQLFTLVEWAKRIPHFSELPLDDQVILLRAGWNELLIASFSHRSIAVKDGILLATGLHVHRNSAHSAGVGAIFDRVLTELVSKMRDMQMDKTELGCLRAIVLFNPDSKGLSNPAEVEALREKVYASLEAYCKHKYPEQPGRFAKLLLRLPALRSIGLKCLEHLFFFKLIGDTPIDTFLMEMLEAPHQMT
T2 sequence (Q13133 1-447 partner): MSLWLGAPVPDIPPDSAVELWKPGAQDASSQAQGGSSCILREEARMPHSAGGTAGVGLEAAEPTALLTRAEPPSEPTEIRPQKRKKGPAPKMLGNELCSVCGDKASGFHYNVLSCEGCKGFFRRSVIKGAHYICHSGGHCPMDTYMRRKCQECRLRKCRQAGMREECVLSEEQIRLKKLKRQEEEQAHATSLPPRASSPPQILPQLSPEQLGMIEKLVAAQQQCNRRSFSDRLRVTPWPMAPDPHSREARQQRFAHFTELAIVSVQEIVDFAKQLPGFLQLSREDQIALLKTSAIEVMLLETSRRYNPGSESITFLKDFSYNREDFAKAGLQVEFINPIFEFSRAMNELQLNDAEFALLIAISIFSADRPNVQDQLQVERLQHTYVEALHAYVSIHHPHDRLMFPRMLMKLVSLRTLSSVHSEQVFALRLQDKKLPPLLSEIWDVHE
Procedure: The activation from this natural LXRE in our system was tested in the presence of either 100 nM RXR agonists alone or in combination with 100 nM of both the RXR agonist and LXR agonist T0901317 (TO). […] The LXRE-mediated assays were performed using human embryonic cells (HEK293) seeded at a density of 60,000 cells/well in a 24-well plate and maintained in DMEM (Hyclone) supplemented with 10% fetal bovine serum, 100 µg/mL streptomycin, 100 U/mL penicillin (Invitrogen, Carlsbad, CA, USA) at 37 degrees Celsius, 5% CO2 for 24 h. The cells were co-transfected with 250 ng of an LXRE-luciferase reporter gene, 50 ng of pSG5-human RXRα, and 20 ng of renilla control plasmid. […] After 24 h post treatment, the cells were lysed and the transcriptional activity mediated by the LXRE was measured using the Dual Luciferase Assay System (Promega, Madison, WI) in a Sirius FB12 luminometer (Berthold Detection Systems, Pforzheim, Germany) according to the manufacturer’s protocol. The data are a compilation of between three and six independent assays with each treatment group dosed in triplicate for each independent assay. […] Bars on all graphs indicate standard deviation of the replicate experiments.
Cells were transfected for 24 h utilizing a liposome-mediated transfection protocol and then treated with the ethanol vehicle, or 100 nM of the indicated compound alone or in combination with 100 nM TO901317 (TO). […] (A) Human HEK-293 cells were transfected and treated as described in Figure 8.

human RARα = target: T3, human RARα (Homo sapiens, UniProt P10276); assay: RARE-luciferase reporter assay in HEK293 cells; settings: HEK293, all-trans-RA set to 100%
T3 construct: expressed in transfected cells; host or cells: HEK293 cells
T3 sequence (P10276 1-462): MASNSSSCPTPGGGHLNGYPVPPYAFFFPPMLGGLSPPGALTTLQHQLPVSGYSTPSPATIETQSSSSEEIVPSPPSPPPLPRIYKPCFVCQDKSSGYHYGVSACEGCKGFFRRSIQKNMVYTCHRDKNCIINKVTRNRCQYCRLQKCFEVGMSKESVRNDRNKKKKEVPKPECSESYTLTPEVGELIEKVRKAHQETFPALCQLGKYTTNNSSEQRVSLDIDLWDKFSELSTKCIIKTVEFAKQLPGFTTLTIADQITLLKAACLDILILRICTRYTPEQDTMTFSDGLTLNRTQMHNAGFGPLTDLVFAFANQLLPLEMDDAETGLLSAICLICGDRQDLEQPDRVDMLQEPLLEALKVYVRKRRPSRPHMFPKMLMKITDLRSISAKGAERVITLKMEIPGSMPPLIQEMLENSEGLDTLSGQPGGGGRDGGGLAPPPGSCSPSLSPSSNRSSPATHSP
Procedure: Human embryonic kidney cells (HEK293) were plated at 60,000 cells per well in a 24-well plate and maintained as described above. After 24 h, the cells were transfected with 250 ng pTK-DR5(X2)-Luc, 25 ng pCMX-human RARα, and 20 ng renilla utilizing 1.25 µL polyethylenimine (PEI) per well for 24 h. The sequence of the double DR5 RARE is: 5′-[…]-3′ (DR5 responsive elements underlined). The cells were treated with ethanol vehicle (0.1%), all-trans-retinoic acid (RA, the ligand for RAR), or the indicated rexinoid at a final concentration of 10 nM. After 24 h of treatment, the retinoid activity was measured as described above (dual luciferase assay). […] Three independent assays were conducted with triplicate samples for each treatment group. The value for RA was set to 100%. […]

Saccharomyces cerevisiae = Saccharomyces cerevisiae toxicity assay; settings: 3 h incubation, colony count vs DMSO only control; highest concentration tested 11 µg/µL
Procedure: These compounds were also assessed for mutagenicity and toxicity in Saccharomyces cerevisiae and the toxicity results are summarized in Table 1. No compound was mutagenic in this assay.
All compounds were tested for toxicity and mutagenicity using a Saccharomyces cerevisiae based assay as described previously. Toxicity was assessed in this assay (Table 1), comparing growth on plates to control treatments. Compounds were solubilized in DMSO at increasing concentrations and cells were incubated with the compounds for 3 h before plating on selective media or YPD to assess toxicity and mutagenicity. Cytotoxicity was assessed as described. Growth of colonies on the full nutrient YPD plate for each treatment was compared to the DMSO only control. The concentration at which 50% cell death (as indicated by colony count compared to DMSO only control) +/−10% cell death is reported as the 50% killing rate. The highest concentration tested was 11 µg/µL.

[2] = RXRα activation, value (SD), Table 1 does not say whether GFP or Luc assay, read-out: EC50 (nM) +/−(SD)

Compound | EC50 (RXRα; [2]) [nM] | LXRE Activity (% of Bex) [1] | RARE Activity (%RA at 10 nM) (human RARα) [%RA] | Cyto-Toxicity (50% Cell Death) (Saccharomyces cerevisiae) | LHS Score (vs. Bex) [1] | LXRE activity in combination with LXR ligand T0901317 (TO) ([1]; 100 nM compound + 100 nM T0901317, HEK293, compared with TO+1) | EC50 (RXRα) [nM]
CCN(c1ccc(C(=O)O)cc1)c1ccc(OCC(C)C)c(C(C)C)c1 [Compound 30, 4-(ethyl(4-isobutoxy-3-isopropylphenyl)amino)benzoic acid] | 397 | 60.2 % of Bex | 1.1 | 0.08 µg/µL |  |  | 
C=C(c1ccc2c(c1)C(C)(C)CCC2(C)C)c1ncc(C(=O)O)cn1 [Compound 34, 2-(1-(5,5,8,8-tetramethyl-5,6,7,8-tetrahydronaphthalen-2-yl)vinyl)pyrimidine-5-carboxylic acid] | 56.2 | 77.6 % of Bex | 10.3 | none | 0.70 |  | 
C=C(c1ccc(C(=O)O)cc1)c1cc2c(cc1C)C(C)(C)CCC2(C)C [Compound 1, reference compound] |  |  |  | 0.5 µg/µL |  |  | 
C=C(c1ccc(C(=O)O)cc1)c1cc2c(cc1C)C(C)(C)CC2(C)C [Compound 26, reference compound] | 70.1 | 94.5 % of Bex | 3.0 | none | 0.66 | higher activity than TO+1 | 
CCN(c1ccc(OCC(C)C)c(C(C)C)c1)c1ncc(C(=O)O)cn1 [Compound 28, 2-(ethyl(4-isobutoxy-3-isopropylphenyl)amino)pyrimidine-5-carboxylic acid] | 297 | 77.7 % of Bex | 1.6 | 1 µg/µL |  |  | 
Cc1cc2c(cc1C1(c3ncc(C(=O)O)cn3)CC1)C(C)(C)CC2(C)C [Compound 33, 2-(1-(1,1,3,3,6-pentamethyl-2,3-dihydro-1H-inden-5-yl)cyclopropyl)pyrimidine-5-carboxylic Acid] | 17 | 50.9 % of Bex | 5.9 | none | 0.38 |  | 
C=C(c1ncc(C(=O)O)cn1)c1cc2c(cc1C)C(C)(C)CC2(C)C [Compound 32, 2-(1-(1,1,3,3,6-pentamethyl-2,3-dihydro-1H-inden-5-yl)vinyl)pyrimidine-5-carboxylic Acid] | 34.4 | 46.0 % of Bex | 12.9 | none | 0.38 |  | 
C=C(c1ccc(C(=O)O)c(O)c1)c1ccc2c(c1)C(C)(C)CCC2(C)C [Compound 37b, 2-Hydroxy-4-(1-(5,5,8,8-tetramethyl-5,6,7,8-tetrahydronaphthalen-2-yl)vinyl)benzoic Acid] | 413 | 69.1 % of Bex | 5.2 | 0.5 µg/µL | 0.91 |  | 
C=C(c1ccc(C(=O)O)c(O)c1)c1cc2c(cc1C)C(C)(C)CCC2(C)C [Compound 37a, 2-Hydroxy-4-(1-(3,5,5,8,8-pentamethyl-5,6,7,8-tetrahydronaphthalen-2-yl)vinyl)benzoic acid] | 24.2 | 91.1 % of Bex | 2.9 | 1 µg/µL | 0.45 |  | 
CCN(c1ccc(OCC(C)C)c(C(C)C)c1)c1ccc(C(=O)O)cn1 [Compound 25, 6-(ethyl(4-isobutoxy-3-isopropylphenyl)amino)nicotinic acid] | 274 | 72.4 % of Bex | 2.9 | none |  |  | 
C=C(c1ccc(C(=O)O)c(F)c1)c1ccc2c(c1)C(C)(C)CCC2(C)C [Compound 36, 2-fluoro-4-(1-(5,5,8,8-tetramethyl-5,6,7,8-tetrahydronaphthalen-2-yl)vinyl)benzoic Acid] | 375 | 85.2 % of Bex | 1.4 | 0.08 µg/µL |  |  | 
CC1(C)CCC(C)(C)c2cc(C3(c4ncc(C(=O)O)cn4)CC3)ccc21 [Compound 35, 2-(1-(5,5,8,8-tetramethyl-5,6,7,8-tetrahydronaphthalen-2-yl)cyclopropyl)pyrimidine-5-carboxylic acid] | 1.3 | 60.6 % of Bex | 5.1 | none |  |  | 
C=C(c1ccc(C(=O)O)cc1)c1ccc2c(c1)C(C)(C)CCC2(C)C [Compound 27, 4-(1-(5,5,8,8-tetramethyl-5,6,7,8-tetrahydronaphthalen-2-yl)vinyl)benzoic acid, reference compound] |  | 82.4 % of Bex | 1.5 | 0.5 µg/µL | 1.0 |  | 171
